The source of these data is US9388146B2, “Crystalline forms of tyrosine kinase inhibitors and their salts” (Purdue Pharma L.P., priority 2013, dated 2016).

The nature of data set [1]: Rat pharmacokinetics (plasma, LC-MS/MS, non-compartmental analysis). It counts as in vivo. The note with it: for bioavailability: oral. As to the method:
(§1) Compound I was dosed to nonfasted male CD IGS rats (weighting 180-250 g, Charles River Laboratories) by single intravenous (IV, n=3/group) or oral gavage (PO, n=4/group, including control rat group for drug-free blood and brain collection) administration at a nominal dose levels of 3 mg/kg (IV) or 5 mg/kg (IV) and 10, 50, 100 mg/kg (PO) respectively. Compound was formulated in either DMSO/Solutol® HS 15/phosphate buffered saline, pH 7.4 (PBS) for both IV and PO dosing, or 10% (w/v) Povidone K12 in water for IV dosing or 10% (w/v) Povidone K25 in water for PO dosing, or 18% (w/v) CrosPovidone in water for PO dosing. An intravenous profile was obtained by taking serial or terminal blood samples at 3, 10, 30, 60, 120, 240, 360, 1440 min post dose. An oral profile was obtained by taking serial or terminal blood samples at 10, 30, 60, 120, 240, 360, 480, 1440 min post dose.
(§2) Animals were sedated under general inhalant anesthesia (3% isoflurane) for blood collection by cardiac puncture. Blood aliquots (300-400 μL) were collected in tubes coated with lithium heparin, mixed gently, then kept on ice and centrifuged at 2,500×g for 15 minutes at 4° C., within 1 hour of collection. For control animals, blood was collected by cardiac puncture. The plasma was then harvested and kept frozen at −20° C. until further processing. Plasma Sample Collection from Cannulated Rats. Blood collection was carried out from the jugular vein catheter. Blood aliquots (300-400 μL) were collected in tubes coated with lithium heparin, mixed gently, then kept on ice and centrifuged at 2,500×g for 15 minutes at 4° C., within 1 hour of collection. For control animals, blood was collected by cardiac puncture. The plasma was then harvested and kept frozen at −20° C. until further processing.
(§3) Plasma and brain samples were subjected to quantitative analysis by LC-MS/MS using compound-specific mass transitions. Drug concentration-time profiles were generated and non-compartmental PK analysis (using WinNonlin) used to generate estimates of half-life (T1/2), clearance, volume of distribution (Vss), and oral bioavailability (F %) (Gabriesson, J. and Weiner, D. Pharmacokinetic and Pharmacodynamic Data Analysis: Concepts and Applications. Swedish Pharmaceutical Press. 1997). The concentrations of the test compound in brain (ng/g brain tissue) and in plasma (ng/mL) as well as the ratio of the brain concentration and the plasma concentration at each time point were determined and reported.

For another data set, the target named is TrkB (Homo sapiens, UniProt Q16620). Description: PathHunter whole cell functional assay, BDNF stimulated TrkB activation. It counts as cell-based. The note with it: triplicate.
The target of the next data set is TrkC (Homo sapiens, UniProt Q16288). The data set is described as follows: PathHunter whole cell functional assay, NT3 stimulated TrkC activation. In kind it is cell-based. As to conditions: triplicate.
A short description of data set [2]: Rat brain and plasma concentration after IV dosing. As to conditions: male, CD IGS, dose 3 and 5 mg/kg. In kind it is in vivo. As to the method: as §1, §2
Immediately after the blood sampling, rats were decapitated and the whole brains were quickly removed, rinsed with cold saline (0.9% NaCl, g/mL), surface vasculature ruptured, blotted with dry gauze, weighed and kept on ice until further processing within 1 hour of collection. Each brain was homogenized in 3 mL cold phosphate-buffered saline, pH 7.4 for 10 seconds on ice using Power Gen 125. The brain homogenate from each brain was then stored at −20° C. until further processing.
as §3

Data set [3] concerns CFA-induced rat inflammatory pain. Description: Rat CFA-induced inflammatory pain model. In kind it is in vivo. As to conditions: 50 μL of 1 mM s.c. into paw 3 hours after CFA, FIG. 1. As to the method: Hyperalgesia was induced by subcutaneously injecting 50 μL of CFA (Sigma-Aldrich, St. Louis, Mo., USA) into the plantar surface of the left hind paw of the rats using a 30-gauge hypodermic needle under sevoflurane anesthesia. The classical signs of inflammation, including edema and redness, for up the last day of tests were recorded. To assess the effect of test article on CFA-induced inflammatory pain, the rats were anesthetized with sevoflurane 3 hours after CFA injection and then injected 50 μL of either 1 mM test article (n=6) or Saline (n=4) subcutaneously (S.C.) into the same site as the CFA injection, using a 30-gauge hypodermic needle under sevoflurane anesthesia, according to published method (Ueda K., et al, J Pharmacol. Sci., 2010; 112(4):438-43). Paw withdrawal latencies (thermal hyperalgesia) are measured before and at […] 2, 4, and 7 days after CFA injection. Mechanical thresholds were also measured in the same way with either Formula 1 compound (n=6) or Saline (n=4) at similar different time points (for example, 1, 3 hour and 3 days). The noxious heat and mechanical thresholds were separately measured in each group of rats. The threshold was measured 3-5 times in each rat and then averaged. Stimulus interval was 5 min.

The next data set concerns CCI rats. Description: Chronic constriction injury (CCI) model of neuropathic pain in rat. It counts as in vivo. The note with it: for observed side effects (drowsiness, motor incoordination, abnormality): oral dosing. An excerpt:
The CCI model is one of the most commonly used mono-neuropathic pain model firstly described in details by Bennett and Xie (Bennett G J, Xie Y K. Pain. 1988; 33(1):87-107). It mimics important clinical chronic pain symptoms such as mechanical allodynia and thermal hyperalgesia. Chronic constriction injury of the sciatic nerve was produced by tying four loose ligatures around the left sciatic nerve according to the method of Bennett and Xie. […] Calibrated von Frey filaments were used to determine the lowest mechanical (tactile) threshold required to evoke a brisk paw withdrawal reflex in the rat hindpaws. Rats were allowed to acclimatize in wire mesh cages for 15-20 min prior to von Frey testing. Assessment of paw withdrawal thresholds (PWTs) using von Frey filaments was undertaken prior to CCI-surgery (pre-surgery baseline on day 0). Before the drug dosing on day 14, the pre-dose baseline was recorded for each rat. […] Drug-naïve CCI-rats (n=4-6 per group) were used. The oral (PO) gavage vehicle was either 10% (w/v) Povidone K25 in water for PO dosing, or 18% (w/v) CrosPovidone in water for PO dosing, or 0.5% CMC-Na/0.1% Tween 80 in distilled water for PO dosing. The positive control gabapentin was dissolved in the vehicle and orally given at 100 mg/kg (by oral gavage). Test article was dissolved or suspended in the vehicle and orally given at 25, 50, 100 and 150 mg/kg. Each CCI-rat was administered a single oral dose of test article, gabapentin or vehicle control, 2 hours before assessment of PWT.

A further data set deals with SNL rats. The data set is described as follows: Spinal nerve ligation (SNL) mono-neuropathic pain model in rat. The note with it: oral administration. It counts as in vivo. As to the method: The surgical procedure will be performed according to the method firstly described by Kim and Chung (Kim S H, Chung J M. Pain. 1992; 50(3):355-63.). This procedure will result in tactile allodynia in the left hindpaw. […] The dose-response anti-allodynia effects of test compound: on day 14 after surgery, rats were treated with test article at one of four doses, vehicle or positive control by oral gavage, and PWT was determined by calibrated von Frey filaments at time points of 0 (right before the drug dosing, Pre-Dose Baseline), 0.5, 1, 2, 4 and 6 hr. The anti-allodynia effects of repeated administration of test article: Administration of test article was started on day 7 after surgery, once a day for 7 days. PWT was determined by calibrated von Frey filaments, 2 hour after test article dosing each day. After 7 days dosing, the measurement were continued, every other day without compound dosing for another 7 days. PWT was determined at the time points as given above.

A short description of data set [4]: Accelerated stability tests by XRPD and Raman. As to conditions: 1 week. In kind it is physicochemical. As to the method:
Approximately 2 mg of sample was gently compressed on the XRPD zero back ground single obliquely cut silica sample holder. The sample was then loaded into a D/MAX 2200 X-ray powder diffractometer (Rigaku) or a Philips X-Pert MPD diffractometer and analyzed using the following experimental conditions (Tube anode: Cu; Generator tension: 40 kV; Tube current: 40 mA; Wavelength alpha1: 1.54056 Å; Wavelength alpha2: 1.5444 Å; Start angle [2 theta]: 5; End angle [2 theta]: 50; and Continuous scan). For suspected novel forms a slightly slower scan speed was used over a range of 4-40° 2θ.
Samples were analyzed by a Nicolet Almega XR Dispersive Raman Microscope for its Raman spectrum using the following conditions (Exposure Time: 1.0 s; Acquisition No: 10; Pinhole Size: 25, 50 or 100 μm; Wavelength range: 2000˜300 cm^−1 (single grating); Laser: […] 100% power; Objective: 20×/0.40 or 50×/0.75 (magnifier/numerical aperture number)). Then the measured Raman spectra were corrected by baseline subtraction using the software OMNIC™ v7.3.

The mark [5] stands for this setting: male, CD IGS, plasma, IV, 3 mg/kg, mean.
Where [6] appears, read: male, CD IGS, plasma, PO, 100 mg/kg, mean.

Like-named read-outs stand apart in the source and are kept apart here.

Sequence of TrkB (Q16620 32-822, species assumed): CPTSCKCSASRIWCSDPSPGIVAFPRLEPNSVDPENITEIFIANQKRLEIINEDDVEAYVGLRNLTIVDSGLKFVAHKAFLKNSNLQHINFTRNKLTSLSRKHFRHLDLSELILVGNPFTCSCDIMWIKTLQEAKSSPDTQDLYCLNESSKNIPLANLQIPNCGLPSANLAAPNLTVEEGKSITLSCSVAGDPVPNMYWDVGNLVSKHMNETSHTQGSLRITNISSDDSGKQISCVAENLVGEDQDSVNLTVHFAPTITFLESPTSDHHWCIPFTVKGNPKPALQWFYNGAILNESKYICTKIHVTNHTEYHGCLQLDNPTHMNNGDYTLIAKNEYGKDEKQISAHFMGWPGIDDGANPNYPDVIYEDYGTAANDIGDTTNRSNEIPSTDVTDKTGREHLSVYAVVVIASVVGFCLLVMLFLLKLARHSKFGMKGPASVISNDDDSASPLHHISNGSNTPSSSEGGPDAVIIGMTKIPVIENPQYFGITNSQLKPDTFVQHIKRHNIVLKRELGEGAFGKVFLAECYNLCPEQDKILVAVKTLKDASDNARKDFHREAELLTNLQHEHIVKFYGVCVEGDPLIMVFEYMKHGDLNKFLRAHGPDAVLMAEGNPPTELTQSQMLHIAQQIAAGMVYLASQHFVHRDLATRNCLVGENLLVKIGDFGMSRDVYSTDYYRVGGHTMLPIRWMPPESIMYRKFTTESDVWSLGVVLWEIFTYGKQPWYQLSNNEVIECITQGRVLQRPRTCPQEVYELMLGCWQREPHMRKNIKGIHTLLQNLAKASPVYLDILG
Sequence of TrkC (Q16288 32-839, species assumed): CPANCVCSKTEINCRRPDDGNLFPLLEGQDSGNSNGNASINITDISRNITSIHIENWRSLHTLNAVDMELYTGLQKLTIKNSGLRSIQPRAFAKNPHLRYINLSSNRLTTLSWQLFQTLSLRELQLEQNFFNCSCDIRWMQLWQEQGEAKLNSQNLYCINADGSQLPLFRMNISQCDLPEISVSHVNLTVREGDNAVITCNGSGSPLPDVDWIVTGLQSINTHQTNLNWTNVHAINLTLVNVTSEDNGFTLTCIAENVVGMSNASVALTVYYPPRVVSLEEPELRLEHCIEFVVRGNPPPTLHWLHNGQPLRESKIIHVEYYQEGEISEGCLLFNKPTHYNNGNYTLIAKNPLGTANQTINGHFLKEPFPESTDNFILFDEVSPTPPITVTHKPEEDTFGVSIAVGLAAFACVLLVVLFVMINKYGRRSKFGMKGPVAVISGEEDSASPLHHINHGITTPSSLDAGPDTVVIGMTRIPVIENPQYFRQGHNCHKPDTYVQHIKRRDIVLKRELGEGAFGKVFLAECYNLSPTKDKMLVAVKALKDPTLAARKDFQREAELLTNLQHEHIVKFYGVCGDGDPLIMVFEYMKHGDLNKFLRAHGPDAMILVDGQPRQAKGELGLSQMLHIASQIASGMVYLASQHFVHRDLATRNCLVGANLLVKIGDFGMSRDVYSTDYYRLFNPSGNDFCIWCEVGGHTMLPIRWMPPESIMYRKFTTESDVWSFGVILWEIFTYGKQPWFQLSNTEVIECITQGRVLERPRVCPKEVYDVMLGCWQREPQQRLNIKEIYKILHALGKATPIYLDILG

By bioavailability is commonly meant the share of a dose that reaches the circulation, judged against a reference dose that is usually intravenous. Turning to `O=C(O)c1ccc(Nc2cc(N3CCN(C4CCCCC4)CC3)c3noc4c3c2C(=O)c2ccccc2-4)cc1` [Compound 701, 4-((3-(4-cyclohexylpiperazin-1-yl)-6-oxo-6H-anthra[1,9-cd]isoxazol-5-yl)amino)benzoic acid], the bioavailability in data set [1] (male, CD IGS, plasma) was less than 20%.
In general, IC50 refers to the point on the concentration scale where inhibition reaches its midpoint. Low readings indicate inhibition by little substance, high ones a need for much substance. As to `O=C(O)c1ccc(Nc2cc(N3CCN(C4CCCCC4)CC3)c3noc4c3c2C(=O)c2ccccc2-4)cc1` [Compound C], the IC50 against TrkB and at TrkC was greater than 10 µM each time.
By clearance is commonly meant a measure of how efficiently the substance is removed, as volume per time. High values mean a high capacity for elimination, low ones a low capacity for elimination. One may read the half-life as the time in which the quantity being followed falls by half. By Cmax is commonly meant the maximum level reached in the sampled fluid or tissue. For the compound `O=C([O-])c1ccc(Nc2cc(N3CCN(C4CCCCC4)CC3)c3noc4c3c2C(=O)c2ccccc2-4)cc1.[Na+]` [Compound I, Sodium 4-((3-(4-cyclohexylpiperazin-1-yl)-6-oxo-6H-anthra[1,9-cd]isoxazol-5-yl)amino)benzoate], in data set [1] (PO, 100 mg/kg, mean), the F was roughly 100%. The clearance in data set [1] (setting [5]) was 4 mL/min/kg. Also, the results for the half-life in data set [1] (setting [5]) and in data set [1] (setting [6]) were 1.08 h and 2.07 h, respectively. Moreover, the Vd in data set [1] (male, CD IGS, plasma, IV, 3 mg/kg, mean, read-out: Vss) worked out at 0.287 L/kg. In data set [1] (setting [6]), this compound returned a Cmax of 66000 ng/mL. Also, the bioavailability in data set [1] (male, CD IGS, plasma) was in the range of 90 to 100%. Further, the concentration at 30 min worked out at 153 ng/g in data set [2] (brain, 30 min, read-out: Brain concentration) and 11300 ng/mL in data set [2] (plasma, 30 min, read-out: Plasma Concentration). In addition, the concentration at 60 min in data set [2] (brain, 60 min, read-out: Brain concentration) was determined as 120 ng/g; in data set [2] (plasma, 60 min, read-out: Plasma Concentration) it was 8160 ng/mL. The concentration at 180 min in data set [2] (brain, 180 min, read-out: Brain concentration) worked out at 23 ng/g; in data set [2] (plasma, 180 min, read-out: Plasma Concentration), 1830 ng/mL. Also, the Kp at 30 min in data set [2] (brain/plasma, 30 min, read-out: Ratio Brain/Plasma) was 0.014. The Kp at 60 min in data set [2] (brain/plasma, 60 min, read-out: Ratio Brain/Plasma) was determined as 0.018. The Kp at 180 min in data set [2] (brain/plasma, 180 min, read-out: Ratio Brain/Plasma) stood at 0.019. Moreover, the “analgesic effect (thermal hyperalgesia / mechanical threshold)” value in data set [3] is reported as “efficacious in relieving the pain”. Besides, the “observed side effects (drowsiness, motor incoordination, abnormality)” value with CCI rats is on record as “no such effect or other abnormality was observed”. The “more effective in suppressing mechanical allodynia compared to gabapentin” value in the data set on CCI rats (same oral dose of 100 mg/kg) was “about 100%”. For the same compound, the “effect on mechanical allodynia (PWT, von Frey)” value in the data set with CCI rats (single oral dose 25, 50, 100 and 150 mg/kg, 2 hours before assessment, FIG. 2) was “significantly reduced mechanical allodynia”; with SNL rats, “significantly reduced mechanical allodynia”. The “stability as measured by XRPD and Raman” value in data set [4] (40° C./75% RH) and in data set [4] (80° C.) was “no instability” throughout.
With `O=C([O-])c1ccc(Nc2cc(N3CCN(C4CCCCC4)CC3)c3noc4c3c2C(=O)c2ccccc2-4)cc1.[Na+]` [Form A, Sodium 4-((3-(4-cyclohexylpiperazin-1-yl)-6-oxo-6H-anthra[1,9-cd]isoxazol-5-yl)amino)benzoate], in data set [4] (40° C./75% RH and 80° C.), the “stability of the polymorphic form” value is “stable polymorphic form”.
Consider `NCC1(CC(=O)O)CCCCC1` [gabapentin, reference compound], for which the “observed side effects (drowsiness, motor incoordination, abnormality)” value with CCI rats is listed as “drowsiness or motor incoordination”.
